Results on six molecules are retold here after patent publication US10487116B2, “Immunotherapy against several tumors, such as lung cancer, including NSCLC” (IMMATICS BIOTECHNOLOGIES GMBH, priority 2013, dated 2019).

The target in data set [1] is T1, HLA-DR2 (Homo sapiens, UniProt P01903+P01911).
T1 construct: purchased ProImmune
Put plainly: ProImmune REVEAL MHC-peptide binding assay. Conditions: compared to the positive control peptide, time 0. How it is done:
(§1) The ProImmune REVEAL® MHC-peptide binding assay determines the ability of each candidate peptide to bind to the selected HLA class II haplotype and stabilize the HLA-peptide complex. Thereby the candidate peptides are assembled in vitro with a particular HLA class II protein. The level of peptide incorporation into HLA molecules is measured by presence or absence of the native conformation of the assembled HLA-peptide complex at time 0 after completed refolding procedure (so called on-rate).
(§2) The binding capacity of candidate peptide to a particular HLA molecule is compared to the one with known very strong binding properties (positive control) resulting in the corresponding REVEAL® […] binding score. The positive control peptide is selected and provided by ProImmune based on their experience individually for each HLA haplotype.

The subject of data set [2] is HLA-DR1. Put plainly: ProImmune REVEAL MHC-peptide binding assay. On the set-up: species or system human. The note with it: compared to the positive control peptide, time 0. As to the method: as §1, §2
Data set [3] deals with HLA-DR4. Put plainly: ProImmune REVEAL MHC-peptide binding assay. On the set-up: species or system human. Conditions: compared to the positive control peptide, time 0. As to the method: as §1, §2
Data set [4] relates to HLA-DR5. Put plainly: ProImmune REVEAL MHC-peptide binding assay. On the set-up: species or system human. Conditions: compared to the positive control peptide, time 0. As to the method: as §1, §2
The subject of data set [5] is HLA-DR7. Put plainly: ProImmune REVEAL MHC-peptide binding assay. The arrangement: species or system human. The note with it: compared to the positive control peptide, time 0. As to the method:
as §1, §2

For data set [6], the system named is CD4 T-cells. Put plainly: Intracellular cytokine staining (ICS) of CD4 T-cells in blood samples of vaccinated patients. The note with it: vaccination with IMA950 peptides, 16 patients. The format is in vivo, human. How it is done: A conclusion on the immugenicity of a peptide based on its binding capacity to a HLA molecule can be made by comparing the binding score of this peptide to the one with known immunogenicity. Therefore, five well investigated peptides with determined immunogenicity were selected for this comparison. The immunogenicity of these peptides was determined ex vivo in blood samples of vaccinated patients using intracellular cytokine staining (ICS) CD4 T-cells.
In principle, ICS assays analyze the quality of specific T cells in terms of effector functions. Therefore, the peripheral mononuclear cells (PBMCs) were cultivated in vitro and subsequently restimulated by the peptide of interest, a reference peptide and a negative control (here MOCK).
Following the restimulated cells were stained for FN-gamma, TNF-alpha, IL-2 and IL-10 production, as well as expression of the co-stimulatory molecule CD154. The counting of affected cells was performed on a flow cytometer (FIG. 7).

For data set [7], the system named is HLA-DR3. Put plainly: ProImmune REVEAL MHC-peptide binding assay. On the set-up: species or system human. As to the method: as §1, §2
The subject of data set [8] is HLA-DR6. Put plainly: ProImmune REVEAL MHC-peptide binding assay. On the set-up: species or system human. How it is done: as §1, §2
Data set [9] relates to HLA-DR haplotypes. Put plainly: ProImmune REVEAL MHC-peptide binding assay, all investigated haplotypes. On the set-up: species or system human. Conditions: of 7 investigated HLA haplotypes.
Source text: The 7 investigated HLA-DR haplotypes are selected according to their frequencies in HLA-A*02 and HLA-A*24 positive North Americans population (Table 7.1 and 7.2)
as §1, §2

In data set [10] the test system is HLA-DR haplotypes. Put plainly: Stability of the formed HLA-peptide complexes (REVEAL assay, 24 h at 37° C.). The format is binding, human. The note with it: after 24 h at 37° C.; of 6 investigated HLA-peptide complexes. How it is done:
Besides the affinity of a peptide to a particular HLA molecule, the enduring stability of the formed HLA-peptide complex is crucial for the occurrence of an immune response. Accordingly presence of the formed HLA-peptide complex is measured after its incubation for 24 h at 37° C. Consequently the stability of the formed MHC-peptide complex is calculated as a ration of the binding scores at 24 h and the binding scores which are received right after the refolding (accordingly at time 0) in percent.

Data set [11] concerns lung cancer cells NCI-H460. Conditions: Wang et al., 2009a; cited from earlier work.
For data set [12], the system named is colon carcinoma cells HCT-8. The note with it: Wang et al., 2009a; cited from earlier work.
Data set [13] deals with colon carcinoma cells HCT-15. The note with it: Wang et al., 2009a; cited from earlier work.
Data set [14] concerns prostate cancer cells. The note with it: Beckers et al., 2007; cited from earlier work.

T1 sequence (P01903 26-254): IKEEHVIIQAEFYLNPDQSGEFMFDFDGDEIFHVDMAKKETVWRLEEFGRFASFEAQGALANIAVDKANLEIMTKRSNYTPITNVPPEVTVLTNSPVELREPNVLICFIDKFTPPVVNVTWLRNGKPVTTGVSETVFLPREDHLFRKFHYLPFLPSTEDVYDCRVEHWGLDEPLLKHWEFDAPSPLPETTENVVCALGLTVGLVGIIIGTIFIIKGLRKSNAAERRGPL
T1 sequence (P01911 30-227 limits assumed): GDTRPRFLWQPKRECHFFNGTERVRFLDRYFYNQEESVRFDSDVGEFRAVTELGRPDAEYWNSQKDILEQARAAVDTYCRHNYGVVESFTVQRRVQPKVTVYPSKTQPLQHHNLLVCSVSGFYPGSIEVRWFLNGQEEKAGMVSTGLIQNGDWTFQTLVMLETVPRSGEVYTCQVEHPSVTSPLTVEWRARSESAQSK

With “BIR-002: class II peptide with known immunogenicity, IMA950 peptide (TLGEFLKLDRERAKN) [reference compound]”, the “Relative Binding Score HLA-DR2” value in data set [1] was 0.05. Besides, in [2], the “Relative Binding Score HLA-DR1” value is 40.06. Also, the “Relative Binding Score HLA-DR4” value in [3] came out at 6.12. Moreover, the “Relative Binding Score HLA-DR5” value in data set [4] is 103.9. Further, in [5], the “Relative Binding Score HLA-DR7” value was 0.27. For the same molecule, in data set [6], the immune response was 100%.

As for “MET-005: class II peptide with known immunogenicity, IMA950 peptide (TFSYVDPVITSISPKYG) [reference compound]”, the “Relative Binding Score HLA-DR2” value in data set [1] came to 0.28. The “Relative Binding Score HLA-DR1” value in data set [2] worked out at 0.87. In addition, the “Relative Binding Score HLA-DR4” value in [3] was found to be 5.89. Besides, in data set [4], the “Relative Binding Score HLA-DR5” value worked out at 0.12. Moreover, the “Relative Binding Score HLA-DR7” value in [5] came to 3.69. The molecule also returned an immune response in [6] of 100%.

Consider “TNGVIHVVDKLLYPADT (listed as Homo sapiens) [SEQ ID NO 77]”, for which the “Relative Binding Score HLA-DR2” value in data set [1] is on record as 0.68. Besides, the “Relative Binding Score HLA-DR1” value in data set [2] is given as 0.24. For the same molecule, the “binding to HLA-DR3” value in data set [7] is on record as “did not bind”. In addition, the “Relative Binding Score HLA-DR4” value in data set [3] is 0.02. Moreover, the “Relative Binding Score HLA-DR5” value in [4] came to 0.08. Moreover, in [8], the “binding to HLA-DR6” value is “did not bind”. Further, the “Relative Binding Score HLA-DR7” value in data set [5] worked out at 0.47. Further, the “HLA haplotypes with which a complex is formed” value in [9] was 5. Moreover, in data set [10], the HLA-peptide complexes stable is reported as 3.

On to “INNYTPDMNREDVDYAIR (listed as Homo sapiens) [SEQ ID NO 76]”, for which the “Relative Binding Score HLA-DR2” value in data set [1] turned out to be 2.43. Besides, the “Relative Binding Score HLA-DR1” value in data set [2] is on record as 0.04. Also, the “binding to HLA-DR3” value in [7] was “did not bind”. In addition, the “Relative Binding Score HLA-DR4” value in [3] turned out to be 0.74. In data set [4], the “Relative Binding Score HLA-DR5” value is recorded as 0.04. The “binding to HLA-DR6” value in [8] is listed as “did not bind”. For the same molecule, in [5], the “Relative Binding Score HLA-DR7” value is listed as 0. In addition, the “HLA haplotypes with which a complex is formed” value in data set [9] worked out at 4. Further, the HLA-peptide complexes stable in data set [10] is 2.

As to `CCCCCCCCCCCCCCOc1ccc(C(=O)O)o1` [TOFA, 5-tetradecyloxy-2-furoic acid], the cytotoxicity result in [11], in [12] and in data set [13] was “cytotoxic” each time.

As to `CO[C@H]1CCCC[C@@H](c2ccccc2)OC(=O)[C@@H](C)[C@@]2(O)O[C@H]([C@@H](C)[C@H](O)[C@H]2OC)[C@@H](C)/C=C/[C@H]1OC` [soraphen A], in data set [14], the fatty acid oxidation result is on record as “enhances fatty acid oxidation” and the lipogenesis entry is reported as “blocks lipogenesis”.
